Tested on: normal human-derived epidermal keratinocytes
Assay: in-vitro thymidine dimer assay after UVB, epidermis skin model
Type: cell-based
Settings: 7 days treatment, UVB 300 mJ/cm^2; Trolox 50 ug/ml, Aristotelia chilensis 5%, Ugni molinae 4%
Experimental: Leaf extracts Aristotelia chilensis and Ugni molinae were evaluated to determine their ability to prevent undesirable thymidine dimer formation upon exposure to UVB radiation. When skin is exposed to UVB radiation, thymidine bases in the DNA can absorb the UVB radiation to form thymidine dimers (also known as thymine dimers) in DNA, complicating the cell's efforts to replicate DNA and to properly function. In this experiment, an in-vitro thymidine dimer assay was performed using a skin model consisting of normal human-derived epidermal keratinocytes cultured to form a multilayered model of the human epidermis. […] The primary antibody was then detected with a secondary antibody conjugated to a fluorescent dye. The membrane was then scanned with an excitation laser and emission filter combo specific to the fluorescent dye, so that the fluorescence intensity of each sample was proportional to the amount of thymidine dimers present in the sample and a lower fluorescence intensity advantageously indicates lower levels of cellular damage from UVB radiation. The results of the thymidine dimer assay are found in Table 1, below, expressed as mean Relative Fluorescence Units (RFU)±standard deviation.

## Cc1c(C)c2c(c(C)c1O)CCC(C)(C(=O)O)O2 (stereo not shown) [Trolox]
  Corrected RFU (thymidine dimers), mean ± standard deviation: 4.380 ± 393.00 RFU

Source: patent US11141374B2, “Natural skin care compositions and methods for treating oxidative stress and restoring skin health” (CODEX BEAUTY CORPORATION, priority 2019, dated 2021)
